Results from PubChem BioAssay (NCI).
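A five-concentration, 48-hour dose response in 96-well plates underlies each endpoint, interpolated linearly between surrounding concentrations. The concentration for 50% growth inhibition is given as GI50. TGI is the concentration that stops growth completely.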

Experiments:
Experiment in all cases: NCI anticancer screen, dose series, 48 h
CCRF-CEM leukemia = tested on: CCRF-CEM leukemia
COLO 205 colon = tested on: COLO 205 colon
KM12 colon = tested on: KM12 colon
MALME-3M melanoma = tested on: MALME-3M melanoma
NCI-H23 lung = tested on: NCI-H23 lung
NCI/ADR-RES ovarian = tested on: NCI/ADR-RES ovarian
SNB-19 CNS = tested on: SNB-19 CNS
UACC-62 melanoma = tested on: UACC-62 melanoma
UO-31 renal = tested on: UO-31 renal
EKVX NSCLC = tested on: EKVX NSCLC

Structure (SMILES)	TGI (CCRF-CEM leukemia) [µM]	TGI (COLO 205 colon) [µM]	TGI (KM12 colon) [µM]	TGI (MALME-3M melanoma) [µM]	TGI (NCI-H23 lung) [µM]	TGI (NCI/ADR-RES ovarian) [µM]	TGI (SNB-19 CNS) [µM]	TGI (UACC-62 melanoma) [µM]	TGI (UO-31 renal) [µM]	TGI (EKVX NSCLC) [µM]	GI50 (CCRF-CEM leukemia) [µM]	GI50 (COLO 205 colon) [µM]	GI50 (EKVX NSCLC) [µM]	GI50 (KM12 colon) [µM]	GI50 (NCI-H23 lung) [µM]	GI50 (NCI/ADR-RES ovarian) [µM]	GI50 (SNB-19 CNS) [µM]	GI50 (UO-31 renal) [µM]	GI50 (UACC-62 melanoma) [µM]	GI50 (MALME-3M melanoma) [µM]
c1ccc(N=C2SC(=NC3CCCCC3)N(C3CCCCC3)C2=Nc2ccccc2)cc1	> 100	> 100	> 100	> 100	> 100	> 100	> 100	> 100	> 100	–	–	–	–	–	–	–	–	–	–	–
COc1ccccc1C1C(C(=O)O)=C(CO)Oc2cc3c(cc21)OCO3 (configuration not stated)	> 100	> 100	–	> 100	> 100	–	> 100	> 100	> 100	> 100	–	–	–	–	–	–	–	–	–	–
Cc1nc(N)sc1-c1ccnc(Nc2ccc(N3CCOCC3)cc2)n1	> 100	> 100	> 100	> 65	> 100	> 100	> 100	–	> 51.1	> 100	1.16	0.488	4.02	1.59	1.6	3.43	> 49.5	1.28	–	–
Cc1ccc(S(=O)(=O)Oc2cc(-c3ccccc3)nc3ccccc23)cc1	> 100	1.18	> 43.5	17.9	12.2	11.6	12.3	20.7	35.6	> 100	–	–	–	–	–	–	–	–	–	–
CC(=O)OC1CCC2(C)C3CCC4(C)C(c5ccc(=O)oc5)CC5OC54C3CCC2(O)C1 (configuration not stated)	2.7	10.3	10.7	3.21	2.98	6.99	31.8	6.95	9.38	3.64	–	–	–	–	–	–	–	–	–	–
COc1ccc(C2CC(c3cccc(Nc4ccncc4)c3)=NN2c2cc(Cl)cc(Cl)c2)cc1 (configuration not stated)	> 100	–	3.3	–	3.44	3.27	–	3.94	2.74	4.68	2.81	–	1.89	1.77	1.79	1.72	–	1.36	1.9	–
NC(Cc1cccc([N+](=O)[O-])c1)C(=O)O (configuration not stated)	> 100	> 100	> 100	> 100	> 100	> 100	> 100	> 100	> 100	> 100	–	–	–	–	–	–	–	–	–	–
O=C(OC(=O)n1ccc2ccccc21)n1ccc2ccccc21	> 100	> 100	> 100	–	> 100	> 100	> 100	> 100	> 100	> 100	–	–	–	–	–	–	–	–	–	–
NCCCNc1nc2ccccc2c2c(=O)c3cc(OC(F)(F)F)ccc3sc12	–	–	–	3.08	3.09	3.41	3.12	3.07	2.9	–	–	–	–	–	1.62	1.73	1.63	1.49	1.66	1.57
C=CC(Br)(CBr)CCC(Cl)C(C)C (configuration not stated)	2.64	10.2	2.95	3.71	8.82	–	6.82	2.98	3.08	21.8	–	–	–	–	–	–	–	–	–	–
CCC[CH2][Ge]([CH2]CCC)([CH2]CCC)[O]C(=O)CC(=O)c1ccccc1	10.6	13.3	16	13	14.8	–	24	10.1	15.9	16.2	0.266	1.55	0.955	0.883	0.28	–	11.7	1.66	1.7	1.47
O=NN(CCCl)C(=O)NC1CCSc2ccccc21 (configuration not stated)	> 100	> 100	> 100	> 100	> 100	> 100	> 100	> 100	> 100	94.1	–	–	–	–	–	–	–	–	–	–
CC(=O)Oc1cccc2c(/C=N/NC(N)=S)ncc(C)c12	> 100	> 41	15.5	42.7	13.4	9.47	16.3	12.3	4.43	39.7	–	–	–	–	–	–	–	–	–	–
Cc1cc(=O)[nH]c(NN2C(Cl)C(=O)C2c2cccc(O)c2)n1 (configuration not stated)	> 100	> 100	> 100	–	> 100	–	> 100	17.8	24.7	> 100	–	–	–	–	–	–	–	–	–	–
Cc1ccc2c(n1)C(=O)c1[nH]c3ccccc3c1C2=O	> 100	4.14	19.6	1.07	3.79	9.29	> 100	1.88	10.7	4.17	3.45	1.89	1.22	3.1	0.687	2.28	2.7	1.63	0.557	0.208
O=[N+]([O-])c1ccc(C=C2C(Cl)=C(Cl)C(Cl)=C2Cl)cc1	6.57	> 100	–	9.26	5.16	17.2	> 100	24.4	3.16	> 100	2.21	3.2	3.67	–	2.05	3.05	9.68	1.47	4.24	2.59
NNC(N)Nc1ccccc1 (configuration not stated)	> 100	> 100	> 100	> 100	> 100	> 100	> 100	> 100	> 100	> 100	–	–	–	–	–	–	–	–	–	–
